According to US20220128542A1, “TREATMENT EFFICIENCY EVALUATION” (TX MEDIC AB, priority 2019, published 2022):

Test system: brain of rats subjected to closed-head diffuse severe TBI (sTBI)
Assay: HPLC of energy metabolites, antioxidants and oxidative/nitrosative stress biomarkers in brain, dose study after sTBI (Example 3)
Type: in vivo, rat
Conditions: for NAD^+/NADH ratio in brain homogenate: calculated, adimensional, rats 7 days post-sTBI
From the text: Male Wistar rats (n=160) of 300-350 g body weight were used in this study.
1994, 80: 291-300. This model causes diffuse axonal injury and it is able to reproduce the physical and mechanical characteristics of the diffuse TBI in humans.
Rats were placed prone on a bed of specific polyurethane foam inserted in a special container. This foam dissipates the major part of the potential energy (deriving from the mechanical forces) and prevents any rebound of the animal after the impact that could produce spinal damages.
These time points are coincident with the worst biochemical derangement (2 days) or, in the case of a mildly injured brain, with a full metabolic recovery (7 days).
The drug treatment consisted in a subcutaneous injection of 0.5 ml of LMW-DS (Tikomed) and administered at 3 different concentrations (1, 5 and 15 mg/kg body weight), according to the schematic protocol described below.
Sham-operated animals underwent the same procedure of anesthesia but TBI and were used as the control group.
Rats used in this study were divided into 4 groups in order to carry out a study on the efficacy of three different concentrations of LMW-DS at two different times post TBI. As subsequently specified, in each group there were animals subjected to a specific treatment for metabolic analyses and other animals intended to histo-morphological studies, according to the procedures described below.
Rats subjected to sTBI and receiving a single administration of LMW-DS after 30 minutes post-TBI, with sacrifice at 2 days post-TBI. Animals were divided in the following subgroups:
Rats subjected to sTBI and receiving a single administration of LMW-DS after 30 minutes post-TBI, with sacrifice at 7 days post-TBI. Animals were divided in the following subgroups:
Rats (n=12) subjected to sTBI and receiving repeated administrations of the maximal dose of LMW-DS (15 mg/kg b.w.) after 30 minutes, 3 days and 5 days post-TBI, with sacrifice at 7 days post-TBI. Four additional rats were used for the histo-morphological studies. Total rats in this group: n=16
To minimize metabolite loss, an in vivo craniectomy was performed in all animals during anesthesia. The rat skull was carefully removed, the brain was exposed, sharply cut along the sagittal fissure and the two hemispheres were separated. The hemispheres dedicated to biochemical analyses were freeze-clamped by aluminum tongues pre-cooled in liquid nitrogen and then immersed in liquid nitrogen. The freeze-clamping procedure was introduced to accelerate freezing of the tissue, thus minimizing potential metabolite loss.
Tissue homogenization for metabolite analyses was effected as described below. After the wet weight (w.w.) determination, the frozen hemispheres were placed into 7 ml of ice-cold, nitrogen-saturated, precipitating solution (1:10 w/v) composed by CH3CN+10 mM KH2PO4, pH 7.40, (3:1; v:v), and the homogenization was performed using an Ultra-Turrax homogenizer set at 24,000 rpm/min (Janke & Kunkel, Staufen, Germany). After centrifugation at 20,690×g, for 10 min at 4° C., the clear supernatants were saved, pellets were supplemented with an aliquot of 10 mM KH2PO4 and homogenized again as described above and saved overnight at −20° C. in order to obtain a complete recovery of aqueous phase from tissue. A second centrifugation was performed (20,690×g, for 10 min at 4° C.) and supernatants combined with those previously obtained were extracted by vigorous agitation with a double volume of HPLC-grade CHCl3 and centrifuged as above.

[1] = 1 mg/kg b.w. single, 30 min after trauma, 2 days post-TBI
[2] = 1 mg/kg b.w. single, 30 min after trauma, 2 days post-sTBI
[3] = 5 mg/kg b.w. single, 30 min after trauma, 2 days post-TBI
[4] = 5 mg/kg b.w. single, 30 min after trauma, 2 days post-sTBI
[5] = 15 mg/kg b.w. single, 30 min after trauma, 2 days post-sTBI
[6] = rats 2 days post-TBI, single 1 mg/kg b.w. 30 min after trauma
[7] = rats 2 days post-TBI, single 5 mg/kg b.w. 30 min after trauma
[8] = rats 2 days post-TBI, single 15 mg/kg b.w. 30 min after trauma

For sodium salt of dextran sulfate [LMW-DS], the NO2 brain concentration [1] was 158.36 ± 19.08 nmol/g w.w, the acetyl-CoA brain concentration [1] was 27.74 ± 3.23 nmol/g w.w and the “ascorbic acid brain concentration” value [1] was 2567.35 ± 147.76 nmol/g w.w. The AMP brain concentration [2] was 62.04 ± 7.46 nmol/g w.w, the CMP brain concentration [2] was 29.39 ± 6.00 nmol/g w.w and the CTP brain concentration [2] was 33.01 ± 7.63 nmol/g w.w. For the same substance, the “GDP glucose brain concentration” value [2] was 65.66 ± 41.61 nmol/g w.w, the GMP brain concentration [2] was 205.06 ± 25.74 nmol/g w.w and the IMP brain concentration [2] was 45.97 ± 8.65 nmol/g w.w. For the same substance, the “NAD^+/NADH ratio (adimensional)” value [2] was 33.91 ± 9.32, the UDP-Gal brain concentration [2] was 118.50 ± 9.89 nmol/g w.w and the UDP-GalNac brain concentration [2] was 21.24 ± 3.13 nmol/g w.w. It also gave a UDP-Glc brain concentration [2] of 45.14 ± 6.68 nmol/g w.w, a UDP-GlcNac brain concentration [2] of 96.62 ± 8.80 nmol/g w.w and a UMP brain concentration [2] of 148.04 ± 20.45 nmol/g w.w. The UTP brain concentration [2] was 104.07 ± 16.34 nmol/g w.w, the GSH brain concentration [3] was 2067.79 ± 301.54 nmol/g w.w and the NO2 brain concentration [3] was 218.12 ± 26.28 nmol/g w.w. The NO3 brain concentration [3] was 148.41 ± 32.30 nmol/g w.w, the acetyl-CoA brain concentration [3] was 34.85 ± 4.05 nmol/g w.w and the “ascorbic acid brain concentration” value [3] was 2626.68 ± 151.17 nmol/g w.w. The AMP brain concentration [4] was 67.03 ± 11.85 nmol/g w.w, the CTP brain concentration [4] was 37.72 ± 7.63 nmol/g w.w and the GDP brain concentration [4] was 183.27 ± 25.32 nmol/g w.w. The “GDP glucose brain concentration” value [4] was 83.81 ± 37.35 nmol/g w.w, the “NAD^+ brain concentration” value [4] was 376.85 ± 64.15 nmol/g w.w and the “NAD^+/NADH ratio (adimensional)” value [4] was 36.61 ± 6.09. The UDP-GalNac brain concentration [4] was 20.75 ± 3.06 nmol/g w.w, the UTP brain concentration [4] was 142.82 ± 22.43 nmol/g w.w and the GSH brain concentration (15 mg/kg b.w. single, 30 min after trauma, 2 days post-TBI) was 2418.94 ± 352.75 nmol/g w.w. The ADP-ribose brain concentration [5] was 23.06 ± 4.63 nmol/g w.w, the AMP brain concentration [5] was 66.26 ± 10.74 nmol/g w.w and the CTP brain concentration [5] was 37.53 ± 7.59 nmol/g w.w. For the same substance, the GDP brain concentration [5] was 194.61 ± 26.88 nmol/g w.w, the “GDP glucose brain concentration” value [5] was 84.24 ± 37.54 nmol/g w.w and the GMP brain concentration [5] was 178.88 ± 22.46 nmol/g w.w. The NADPH brain concentration [5] was 8.93 ± 0.74 nmol/g w.w, the “NADP^+ brain concentration” value [5] was 17.75 ± 4.06 nmol/g w.w and the “NAD^+ brain concentration” value [5] was 475.32 ±80.91 nmol/g w.w. For the same substance, the “NAD^+/NADH ratio (adimensional)” value [5] was 44.40 ± 7.67, the UDP brain concentration [5] was 80.00 ± 8.20 nmol/g w.w and the UDP-GalNac brain concentration [5] was 22.37 ± 3.30 nmol/g w.w. It also gave a UDP-Glc brain concentration [5] of 43.41 ± 6.43 nmol/g w.w, a UDP-GlcNac brain concentration [5] of 108.74 ± 9.90 nmol/g w.w and a UMP brain concentration [5] of 147.53 ± 20.38 nmol/g w.w. The UTP brain concentration [5] was 108.21 ± 16.99 nmol/g w.w, the “concentrations of ascorbic acid and reduced glutathione (GSH)” value (2 days post impact) was “significantly ameliorated” and the “NAA concentration (FIG. 7)” value (2 days post impact, 5 or 15 mg/kg b.w.) was “significantly higher than values found in sTBI rats”. The “concentrations of UTP and ADP” value (2 days post-sTBI) was “No effects”, the nicotinic coenzyme pool (2 days post-sTBI, 15 mg/kg b.w.) was “significant protection” and the Acetyl-CoA (2 days post-sTBI, 5 or 15 mg/kg b.w.) was “partial rescue”. The “high energy phosphates (ATP, GTP, and CTP)” value (2 days post-sTBI, all three dosages (1, 5, 15 mg/kg)) was “Significantly higher values”, the “ATP level, decrease versus value of controls” value (7 days post impact, untreated sTBI 35% decrease) was 16% and the “NAA concentration, decrease versus value of controls” value (7 days post impact, untreated sTBI 48% lower) was 16%. For the same substance, the “NAD+ level and NAD/NADH ratio” value (7 days post injury, single and repeat 15 mg/kg b.w.) was “normalize”, the “NAA (FIG. 11)” value (7 days post sTBI, increasing single doses or repeat maximal dose) was “dose dependent increase” and the “CoA-SH and Acetyl-CoA” value (7 days post-sTBI, 5 or 15 mg/kg b.w. (single and repeat)) was “Remarkable positive effects”. The “ATP (FIG. 8)” value (7 days post-sTBI, any dose tested) was “significant increases”, the “NAD^+/NADH ratio in brain homogenate” value (repeated 15 mg/kg b.w.) was 37.47 ± 9.46 and the “NAD^+/NADH ratio in brain homogenate” value (single 1 mg/kg b.w.) was 33.91 ± 9.32. For the same substance, the “NAD^+/NADH ratio in brain homogenate” value (single 5 mg/kg b.w.) was 33.90 ± 7.19, the “ADENOSINE concentration in brain homogenate” value [6] was 68.91 ± 16.50 nmol/g w.w and the “CDP choline concentration in brain homogenate” value [6] was 8.23 ± 1.22 nmol/g w.w. The “CREATININE concentration in brain homogenate” value [6] was 17.66 ± 3.29 nmol/g w.w, the “CYTIDINE concentration in brain homogenate” value [6] was 13.79 ± 2.49 nmol/g w.w and the “CYTOSINE concentration in brain homogenate” value (from here on “CYTOSINE concentration”) [6] was 13.47 ± 1.65 nmol/g w.w. For the same substance, the “URACIL concentration in brain homogenate” value [6] was 17.18 ± 3.36 nmol/g w.w, the “CYTOSINE concentration” value [7] was 13.65 ± 1.67 nmol/g w.w and the “URACIL concentration in brain homogenate” value [7] was 17.83 ± 3.48 nmol/g w.w. For the same substance, the “URIDINE concentration in brain homogenate” value [7] was 117.21 ± 20.64 nmol/g w.w, the “XANTHINE concentration in brain homogenate” value [7] was 6.71 ± 0.70 nmol/g w.w and the “ADENOSINE concentration in brain homogenate” value [8] was 53.25 ± 12.75 nmol/g w.w. For the same substance, the “CDP choline concentration in brain homogenate” value [8] was 7.07 ± 1.05 nmol/g w.w, the “CYTIDINE concentration in brain homogenate” value [8] was 11.46 ± 2.07 nmol/g w.w and the “CYTOSINE concentration” value [8] was 13.57 ± 1.66 nmol/g w.w.
